Reference: patent US11795147B2, “Modulators of complex I” (Boehringer Ingelheim International GmbH, priority 2019, dated 2023)

Tested on: HT-22 cells
Assay: not given
Format: cell-based, mice
Details: Mus musculus, HT-22, 16 h, read-out: HT22 IC50

Row | SMILES | IC50 [nM]
1 | CCOC(=O)N1CCC(N2C(=O)/C(=C3/COCCN3)c3cc(N4C(C)CCC4C)ccc32)CC1 (stereo not shown) [Compound 11] | 38
2 | Nc1ccc2c(c1)/C(=C1/NCCN(C(=O)OCc3ccccc3)C1O)C(=O)N2C1CCNCC1 (stereo not shown) [Compound 87] | 1000
3 | CC(C)Nc1ccc2c(c1)/C(=C1\COCCN1)C(=O)N2C1CCN(C(C)C)CC1 [Compound 92] | 44
4 | CN1CCC(N2C(=O)/C(=C3/CCCN3)c3cc(N(C)C)ccc32)CC1 [Compound 109] | 160

Same assay, conditions: Mus musculus; protection of HT-22 cells from glutamate (5 mM) induced cell death, 16 hours, Alamar Blue viability; read-out: HT22 IC50

Row | SMILES | IC50 [nM]
5 | CC(C)Nc1ccc2c(c1)/C(=C1\CN(C3CCOCC3)CCN1)C(=O)N2C1CCOCC1 [Compound 24] | 123

Molecular target: Complex I
Assay: Assay A: Determination of Complex I mediated ROS-inhibition (CI)
Format: biochemical
Details: read-out: CI IC50; ROS generation by Complex I purified from bovine heart, Amplex Red/horse radish peroxidase readout, 8 point concentration-response

Row | SMILES | IC50 [nM]
6 | CC(C)Nc1ccc2c(c1)/C(=C1\CN(C3CCOCC3)CCN1)C(=O)N2C1CCOCC1 [Compound 24] | 48
7 | CC(C)N1CCC(Nc2ccc3c(c2)/C(=C2\COCCN2)C(=O)N3C(C)C)CC1 [Compound 96] | 63
8 | CC(Nc1ccc2c(c1)/C(=C1\COCCN1)C(=O)N2C(C)C)C1CC1 (stereo not shown) [Compound 97] | 344
9 | CC(C)N1C(=O)/C(=C2/COCCN2)c2cc(NC3COC3)ccc21 [Compound 98] | 187
10 | COCC(C)Nc1ccc2c(c1)/C(=C1\COCCN1)C(=O)N2C1CCOCC1 (stereo not shown) [Compound 99] | 451
11 | CC(Nc1ccc2c(c1)/C(=C1\COCCN1)C(=O)N2C1CCOCC1)c1cccnc1 (stereo not shown) [Compound 100] | 34
12 | CC1CCCC1Nc1ccc2c(c1)/C(=C1\COCCN1)C(=O)N2C1CCOCC1 (stereo not shown) [Compound 102] | 109
13 | O=C1/C(=C2/COCCN2)c2cc(NCC3CC3)ccc2N1C1CCOCC1 [Compound 103] | 76
14 | CN(C)c1ccc2c(c1)C(=C1NCC3(CCCCC3)CN1)C(=O)N2C [Compound 104] | 704
15 | CN(C)c1ccc2c(c1)/C(=C1\CCCCCN1)C(=O)N2C [Compound 105] | 64
16 | CN(C)c1ccc2c(c1)/C(=C1/NCCN1c1ccccc1)C(=O)N2C [Compound 106] | 327
17 | CN1C(=O)/C(=C2/CCOCCN2)c2cc(N3CCCC3)ccc21 [Compound 107] | 299
18 | CN(C)c1ccc2c(c1)/C(=C1\CCN(C(=O)OCc3ccccc3)CCN1)C(=O)N2C [Compound 108] | 118
19 | CC(C)N1CCN/C(=C2\C(=O)N(C)c3ccc(N4CCCC4)cc32)CC1 [Compound 110] | 264
20 | CC(=O)N1CCN/C(=C2\C(=O)N(C3CCOCC3)c3ccc(NC(C)C)cc32)C1 [Compound 111] | 119
21 | O=C1C(=C2CCOCC2)c2cc(N3CCCC3)ccc2N1C1CCOCC1 [Compound 112] | 352
22 | CC(C)N1C(=O)/C(=C2/CCCCN2)c2cc(N(C3CCC3)C3CCC3)ccc21 [Compound 113] | 106
23 | CC(C)Nc1ccc2c(c1)/C(=C1\CN(C3COC3)CCN1)C(=O)N2C(C)C [Compound 114] | 58
24 | CC(C)Nc1ccc2c(c1)/C(=C1\CCCN1C)C(=O)N2C(C)C [Compound 115] | 80
25 | CC(C)N1C(=O)C(=C2CCOCC2)c2cc(NC3CCCC3)ccc21 [Compound 116] | 539
26 | O=C1/C(=C2/COCCN2)c2cc(N3CCCC3)ccc2N1C1CCOCC1 [Compound 117] | 738
27 | COCC(C)N1C(=O)/C(=C2/COCCN2)c2cc(N3CCC(O)C3)ccc21 (stereo not shown) [Compound 119] | 422
28 | O=C1/C(=C2/CCOCCN2)c2cc(NC3CCC3)ccc2N1C1CCOCC1 [Compound 120] | 235
29 | O=C1/C(=C2/CCN(C3COC3)CCN2)c2cc(N3CCCC3)ccc2N1C1CCOCC1 [Compound 121] | 75
30 | CC1CCCC1Nc1ccc2c(c1)/C(=C1\COCCN1)C(=O)N2C(C)C (stereo not shown) [Compound 124] | 259

Row | SMILES | IC50 [nM]
31 | CC1OCCC1Nc1ccc2c(c1)/C(=C1\COCCN1)C(=O)N2C(C)C (stereo not shown) [Compound 125] | 50
32 | CC(Nc1ccc2c(c1)/C(=C1\COCCN1)C(=O)N2C(C)C)c1cncnc1 (stereo not shown) [Compound 126] | 85
33 | CC(C)N1C(=O)/C(=C2/COCCN2)c2cc(NCC3(C)COC3)ccc21 [Compound 127] | 82
34 | CC(C)N1C(=O)/C(=C2/CCOCCN2)c2cc(N3C(C)CCC3C)ccc21 (stereo not shown) [Compound 128] | 44
35 | CC(C)N1C(=O)/C(=C2/CCOCCN2)c2cc(N3CCCC3)ccc21 [Compound 129] | 702
36 | CC(C)N1C(=O)/C(=C2/COCCN2)c2cc(N3CCCC3)ccc21 [Compound 130] | 877
37 | O=C1/C(=C2/COCCN2)c2cc(NC3CCC3)ccc2N1C1CCOCC1 [Compound 132] | 55
38 | CC(C)Nc1ccc2c(c1)/C(=C1\CCCCN1)C(=O)N2C(C)C [Compound 133] | 49
39 | CC(C)Nc1ccc2c(c1)/C(=C1\CN(C3CCOCC3)CCN1)C(=O)N2C(C)C [Compound 134] | 62
40 | CC(C)Nc1ccc2c(c1)/C(=C1\COCCN1)C(=O)N2C1COC1 [Compound 135] | 82
41 | CCC(CC)Nc1ccc2c(c1)/C(=C1\COCCN1)C(=O)N2C1COC1 [Compound 136] | 213
42 | COCC(C)Nc1ccc2c(c1)/C(=C1\COCCN1)C(=O)N2C1COC1 (stereo not shown) [Compound 137] | 138
43 | CC(C)Nc1ccc2c(c1)/C(=C1\COC3(CCN(C(C)C)CC3)CN1)C(=O)N2C(C)C [Compound 138] | 206
44 | CC(C)N1CCC2(CC1)CN/C(=C1\C(=O)N(C(C)C)c3ccc(N4C(C)CCC4C)cc31)CO2 (stereo not shown) [Compound 139] | 308
45 | O=C1/C(=C2/CCOCCN2)c2cc(NC3CCOC3)ccc2N1C1CCOCC1 (stereo not shown) [Compound 140] | 84
46 | O=C1/C(=C2/COCCCN2)c2cc(NC3CCOC3)ccc2N1C1CCOCC1 (stereo not shown) [Compound 141] | 104
47 | CC1CCC(C)N1c1ccc2c(c1)/C(=C1\COCCCN1)C(=O)N2C1CCOCC1 (stereo not shown) [Compound 142] | 116
48 | CC(Nc1ccc2c(c1)/C(=C1\COCCN1)C(=O)N2C(C)C)c1ccncc1 (stereo not shown) [Compound 143] | 79
49 | CC(Nc1ccc2c(c1)/C(=C1\COCCN1)C(=O)N2C(C)C)c1nccs1 (stereo not shown) [Compound 144] | 49
50 | CC(C)N1C(=O)/C(=C2/COCCN2)c2cc(NCC(C)(C)C)ccc21 [Compound 145] | 183
51 | CC(Nc1ccc2c(c1)/C(=C1\COCCN1)C(=O)N2C1CCOCC1)c1cnccn1 (stereo not shown) [Compound 146] | 66
52 | CC(Nc1ccc2c(c1)/C(=C1\COCCN1)C(=O)N2C1CCOCC1)c1cncnc1 (stereo not shown) [Compound 147] | 69
53 | CC(Nc1ccc2c(c1)/C(=C1\COCCN1)C(=O)N2C1CCOCC1)C1CCC1 (stereo not shown) [Compound 148] | 39
54 | COC1COCCC1Nc1ccc2c(c1)/C(=C1\COCCN1)C(=O)N2C1CCOCC1 (stereo not shown) [Compound 149] | 161
55 | CN1CCC(Nc2ccc3c(c2)/C(=C2\COCCN2)C(=O)N3C2CCOCC2)CC1 [Compound 150] | 48

Row | SMILES | IC50 [nM]
56 | O=C1/C(=C2/COCCN2)c2cc(NCC3CCOC3)ccc2N1C1CCOCC1 (stereo not shown) [Compound 151] | 232
57 | CN1C(=O)/C(=C2/CCN(C(=O)OCc3ccccc3)CCN2)c2cc(N3CCCC3)ccc21 [Compound 152] | 477
58 | CN1C(=O)/C(=C2/COCCN2)c2cc(NC3CCC3)ccc21 [Compound 154] | 193
59 | CN1C(=O)/C(=C2/CCN(C3CCOC3)CCN2)c2cc(N3CCCC3)ccc21 (stereo not shown) [Compound 155] | 264
60 | CC1CCC(C)N1c1ccc2c(c1)/C(=C1\COCCN1)C(=O)N2C1CCOCC1 (stereo not shown) [Compound 156] | 77
61 | CC(C)N1C(=O)C(=C2CCOCC2)c2cc(N)ccc21 [Compound 157] | 691
62 | CC(C)N1C(=O)/C(=C2/CCCCN2)c2cc(N3CCOCC3)ccc21 [Compound 158] | 243
63 | CC(=O)N1CCN/C(=C2\C(=O)N(C(C)C)c3ccc(NC(C)C)cc32)C1 [Compound 159] | 120
64 | CC(C)N1C(=O)C(=C2CCOCC2)c2cc(NC3CCOC3)ccc21 (stereo not shown) [Compound 160] | 829
65 | CC(C)N1C(=O)/C(=C2/CCCN2C)c2cc(NC3CCC3)ccc21 [Compound 161] | 957
66 | CC1CCC(C)N1c1ccc2c(c1)/C(=C1\COCCN1)C(=O)N2C1CCOC1 (stereo not shown) [Compound 162] | 464
67 | CC(C)Nc1ccc2c(c1)/C(=C1\COCCN1)C(=O)N2C1CCOC1 (stereo not shown) [Compound 163] | 172
68 | CC(C)Nc1ccc2c(c1)/C(=C1\CCN(C(C)C)CCN1)C(=O)N2C1CCOCC1 [Compound 164] | 172
69 | CC(C)Nc1ccc2c(c1)/C(=C1\CC3(CN1)COC3)C(=O)N2C1CCOCC1 [Compound 165] | 181
70 | CC(C)N1C(=O)/C(=C2/COCCN2)c2cc(N3CCOCC3)ccc21 [Compound 166] | 75
71 | CC(C)Nc1ccc2c(c1)/C(=C1\COCCCN1)C(=O)N2C1CCOCC1 [Compound 167] | 65
72 | O=C1/C(=C2/COCCN2)c2cc(NC3CCOC3)ccc2N1C1CCOC1 (stereo not shown) [Compound 168] | 41
73 | O=C(CCO)Nc1ccc2c(c1)/C(=C1\COCCN1)C(=O)N2C1CCOC1 (stereo not shown) [Compound 169] | 944
74 | CC(=O)N1CC[C@H](N2C(=O)/C(=C3/COCCN3)c3cc(NC(C)C)ccc32)C1 [Compound 170] | 23
75 | CCC(CC)Nc1ccc2c(c1)/C(=C1\COCCN1)C(=O)N2C(C)C [Compound 171] | 206
76 | CC(=O)N1CCC(Nc2ccc3c(c2)/C(=C2\COCCN2)C(=O)N3C(C)C)CC1 [Compound 172] | 78
77 | CC(C)CNc1ccc2c(c1)/C(=C1\COCCN1)C(=O)N2C(C)C [Compound 173] | 367
78 | CC1OCCC1Nc1ccc2c(c1)/C(=C1\COCCN1)C(=O)N2C1CCOCC1 (stereo not shown) [Compound 174] | 39
79 | O=C1/C(=C2/COCCN2)c2cc(NC3COC3)ccc2N1C1CCOCC1 [Compound 175] | 97
